In patent publication US11130780B2, “Inhibitors of growth factor activation enzymes” (Washington University, priority 2015, dated 2021):
Values joined by “and” are separate entries in the source; they are usually repeats but may differ in a detail not shown here. Equal values may be shown once.

Experiments:
Assay type in all cases: biochemical
HGFA [1] = target: T1, HGFA (Homo sapiens, UniProt Q04756); assay: Fluorescent kinetic enzyme inhibitor assay of HGFA; conditions: for Ki: Table 4.2, Boc-QLR-AMC substrate, read-out: HGFA Ki
T1 construct: His6 tag (N); seven amino acid spacer and seven amino acid TEV cleavage site (N); Honey Bee melittin signal peptide (N); made in house; host or cells: High 5 insect cells (baculovirus; virus raised in Sf9)
T1 sequence (Q04756 373-655): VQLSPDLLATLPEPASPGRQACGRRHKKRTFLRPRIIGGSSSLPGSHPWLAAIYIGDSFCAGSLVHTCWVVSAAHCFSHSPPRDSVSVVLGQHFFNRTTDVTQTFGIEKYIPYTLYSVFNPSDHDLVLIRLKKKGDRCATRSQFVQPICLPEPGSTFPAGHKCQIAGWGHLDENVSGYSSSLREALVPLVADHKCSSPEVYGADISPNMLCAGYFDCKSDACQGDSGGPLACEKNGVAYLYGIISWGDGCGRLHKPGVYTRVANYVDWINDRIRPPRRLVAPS
How it was run: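 Recombinant His-tagged HGFA residues 373-655 from insect cells, with substrate at Km. Inhibitors in 11-point dilutions, 0-20 μM final, 2% DMSO, fluorescence (ex 380/em 460 nm) followed over time at room temperature. IC50 from four-parameter fit of mean velocity, average of three experiments.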

HGFA [2] = target: T1, HGFA; assay: Chromogenic kinetic enzyme inhibitor assay of HGFA; conditions: Table 4.1; chromogenic substrate Pefachrome FVIIa
Text: This PCR product was cloned into the SfoI-HindIII sites of a modified pFastBac HT baculovirus expression vector (Addgene, Cambridge, Mass.). This vector contains a six amino His tag followed by a seven amino spacer and a seven amino acid TEV cleavage site placed immediately downstream of the Honey Bee melittin signal peptide. Using a modified Bac to Bac Expression System (Life Technologies, Carlsbad, Calif.), recombinant HGFA bacmids were obtained by transforming DH10Bac Escherichia coli cells. To obtain HGFA containing baculovirus, purified bacmids were transfected into Sf9 insect cells. After 5 days in culture at 27° C., media was harvested from transfected Sf9 cells. This media was used to prepare baculovirus infected insect cells (BIICs). These BIIICs were used to infect High 5 insect cells. Four days post infection, media was harvested and recombinant protein prepared as follows. Media was chilled to 4° C. and spun at 4000×g for 20 minutes (all subsequent steps were performed at 4° C. unless noted). […] Concentrated media was then buffer exchanged in two steps, five volumes of 50 mM Na-phosphate, 500 mM NaCl, pH 6.2, followed by five volumes of 50 mM Na-phosphate, 500 mM NaCl, pH 7.5. […] After mixing this slurry for 12 hours, nickel agarose beads were allowed to settle by gravity and then loaded into a column. Beads were washed with buffer (25 mM Na-phosphate, 500 mM NaCl, 25 mM imidazole, pH 8) and the bound protein eluted using (25 mM Na-phosphate, 500 mM NaCl, 250 mM imidazole, pH 8). Using a Amicon Ultra-4 Centrifugal filters (#UFC801008, Merck Millipore, Ltd., Tullagreen, Ireland), peak protein fractions were concentrated and run over a Superdex-200 10/300 GL column (GE Healthcare Life Sciences, Piscataway, N.J.) in 10 mM Tris, 200 mM NaCl, 0.2 mM EDTA, pH 8. HGFA containing fractions were pooled, concentrated, made 50% glycerol, and stored at minus 20° C. Protein was quantitated using a modified Lowry protein assay (#500-0006, Bio-Rad Laboratories, Hercules, Calif.).
Using Gen 5 2.00 software program (Biotek, Winnoski, Vt.), a four parameter curve fit was used to determine the inhibitor IC50s from a plot of the mean reaction velocity versus the inhibitor concentration. The IC50 values represent the average of three separate experimental determinations.

hepsin = target: T2, hepsin (Homo sapiens, UniProt P05981); assay: Fluorescent kinetic enzyme inhibitor assay of hepsin; conditions: for IC50: Table 4.1; for Ki: Table 4.2, Boc-QAR-AMC substrate, read-out: Hepsin Ki
T2 construct: purchased R&D Systems 4776-SE-010
T2 sequence (P05981 163-417 limits assumed): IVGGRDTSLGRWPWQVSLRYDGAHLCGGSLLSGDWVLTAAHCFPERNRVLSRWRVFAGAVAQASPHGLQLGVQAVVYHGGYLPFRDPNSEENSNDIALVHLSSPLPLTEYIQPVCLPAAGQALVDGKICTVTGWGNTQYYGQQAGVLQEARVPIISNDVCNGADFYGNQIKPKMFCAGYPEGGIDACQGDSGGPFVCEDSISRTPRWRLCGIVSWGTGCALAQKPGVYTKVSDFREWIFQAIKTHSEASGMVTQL
T2 sequence (P05981 45-162 partner limits assumed): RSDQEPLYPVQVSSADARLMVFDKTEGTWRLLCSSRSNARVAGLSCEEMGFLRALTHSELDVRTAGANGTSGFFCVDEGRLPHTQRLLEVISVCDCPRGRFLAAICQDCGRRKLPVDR
Protocol: (§1) Inhibitors (11-pt serial dilutions, 0-20 μM final concentration in reaction) were serially diluted in DMSO (2% DMSO final concentration) and then mixed with either recombinant serine protease domain of HGFA [Z. Han, P. K. Harris, D. E. Jones, R. Chugani, T. Kim, M. Agarwal, W. Shen, S. A. Wildman, J. W. Janetka, Acs Med Chem Lett 2014, 5, 1219-1224], matriptase (Charles Craik, UCSF) or hepsin* (#4776-SE-010, R&D Systems, Minneapolis, Minn.) in black 384 well plates (Corning #3575. Corning, N.Y.). […] The final substrate concentrations for all assays were at the Km for the respective enzymes. Changes in fluorescence (excitation at 380 nm and emission at 460 nm) were measured at room temperature over time in a Biotek Synergy 2 plate reader (Winnoski, Vt.). Using GraphPad Prism version 6.04 software program, (GraphPad Software, San Diego, Calif., www.graphpad.com), a four parameter curve fit was used to determine the inhibitor IC50s from a plot of the mean reaction velocity versus the inhibitor concentration. The IC50 values represent the average of three separate experimental determinations.

matriptase = target: T3, matriptase (Homo sapiens, UniProt Q9Y5Y6); assay: Fluorescent kinetic enzyme inhibitor assay of matriptase; conditions: for IC50: Table 4.1
T3 construct: Charles Craik, UCSF (obtained from another laboratory)
T3 sequence (Q9Y5Y6 615-855 limits assumed): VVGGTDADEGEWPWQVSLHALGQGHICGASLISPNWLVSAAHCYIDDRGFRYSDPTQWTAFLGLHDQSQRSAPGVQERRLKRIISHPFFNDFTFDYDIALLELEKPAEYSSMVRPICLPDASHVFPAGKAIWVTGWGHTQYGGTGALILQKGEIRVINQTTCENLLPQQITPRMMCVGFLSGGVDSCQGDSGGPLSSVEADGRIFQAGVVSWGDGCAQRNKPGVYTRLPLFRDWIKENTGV
Protocol: as §1

SMILES	Ki (HGFA [1]) [µM]	IC50 (HGFA [2])	also measured
CC(=O)N[C@@H](CC(C)C)C(=O)N[C@@H](CC(C)C)C(=O)N[C@@H](CCCNC(=N)N)C(=O)c1nccs1 [Ac-LLR-kt]	0.253	1.48 µM	–
CC(=O)N[C@@H](CCCCN)C(=O)N[C@@H](Cc1c[nH]cn1)C(=O)N[C@@H](CC(C)C)C(=O)N[C@H](CCCNC(=N)N)C(=O)c1nccs1 [Compound 5a-1, Ac-KHLdR-kt]	–	10.9 µM	–
CC(=O)N[C@@H](Cc1c[nH]c2ccccc12)C(=O)N[C@@H](CCC(N)=O)C(=O)N[C@@H](CC(C)C)C(=O)N[C@H](CCCNC(=N)N)C(=O)c1nccs1 [Compound 5b-1, Ac-WQLdR-kt]	–	7.12 µM	–
CC(=O)N[C@@H](CCCCN)C(=O)N[C@@H](CCC(N)=O)C(=O)N[C@@H](Cc1ccccc1)C(=O)N[C@H](CCCNC(=N)N)C(=O)c1nccs1 [Compound 5c-1, Ac-KQFdR-kt]	–	7.82 µM	–
CC(=O)N[C@@H](CCCNC(=N)N)C(=O)N[C@@H](CCC(N)=O)C(=O)N[C@@H](CC(C)C)C(=O)N[C@H](CCCNC(=N)N)C(=O)c1nccs1 [Compound 5e-1, Ac-RQLdR-kt]	–	3.12 µM	–
CC(=O)N[C@@H](CO)C(=O)N[C@@H](Cc1c[nH]cn1)C(=O)N[C@@H](CC(C)C)C(=O)N[C@H](CCCNC(=N)N)C(=O)c1nccs1 [Compound 6a-1, Ac-SHLdR-kt]	–	21.2 µM	–
CC(=O)N[C@@H](Cc1c[nH]c2ccccc12)C(=O)N[C@@H](CCCCN)C(=O)N[C@@H](CC(C)C)C(=O)N[C@H](CCCNC(=N)N)C(=O)c1nccs1 [Compound 6b-1, Ac-WKLdR-kt]	–	6.5 µM	–
CC(=O)N[C@@H](CO)C(=O)N[C@@H](CCCCN)C(=O)N[C@@H](Cc1ccccc1)C(=O)N[C@H](CCCNC(=N)N)C(=O)c1nccs1 [Compound 6c-1, Ac-SKFdR-kt]	–	10.8 µM	–
CC(=O)N[C@@H](CO)C(=O)N[C@H](CCCNC(=N)N)C(=O)N[C@@H](CC(C)C)C(=O)N[C@H](CCCNC(=N)N)C(=O)c1nccs1 [Compound 6e-3, Ac-SdRLdR-kt]	–	11.9 µM	–
CC(C)C[C@H](NC(=O)[C@H](CCC(N)=O)NC(=O)[C@@H](N)CCCCN)C(=O)N[C@@H](CCCNC(=N)N)C(=O)c1nccs1 [H-KQLR(SEQ ID NO: 1)-Kt]	–	0.44 µM	–
CC(C)C[C@H](NC(=O)[C@H](CCC(N)=O)NC(=O)[C@@H](N)CCCCN)C(=O)N[C@H](CCCNC(=N)N)C(=O)c1nccs1 [H-KQLdR-kt]	–	11.3 µM	–
CC(=O)N[C@@H](CC(C)C)C(=O)N[C@@H](CC(C)C)C(=O)N[C@H](C=O)CCCNC(=N)N [Leupeptin, reference compound]	0.188	0.535 µM	fold selective for HGFA over matriptase (HGFA [1]): 3 fold; fold more potent for hepsin versus HGFA (hepsin): 3 fold; IC50 (hepsin): 0.256 µM; IC50 (matriptase): 1.15 µM

Now from value to compound, other results behind:

Ki (HGFA [1]) [µM]	IC50 (HGFA [2])	SMILES	also measured
–	5.53 µM	CC(=O)N[C@@H](CCCCN)C(=O)N[C@@H](CCC(N)=O)C(=O)N[C@@H](CC(C)C)C(=O)N[C@H](CCCNC(=N)N)C(=O)c1nccs1 [Compound 5-1, Ac-KQLdR-kt]	–
0.096	0.65 µM	CC(=O)N[C@@H](CCCCN)C(=O)N[C@@H](Cc1c[nH]cn1)C(=O)N[C@@H](CC(C)C)C(=O)N[C@@H](CCCNC(=N)N)C(=O)c1nccs1 [Compound 5a, Ac-KHLR(SEQ ID NO: 2)-kt]	–
0.065	0.471 µM	CC(=O)N[C@@H](Cc1c[nH]c2ccccc12)C(=O)N[C@@H](CCC(N)=O)C(=O)N[C@@H](CC(C)C)C(=O)N[C@@H](CCCNC(=N)N)C(=O)c1nccs1 [Compound 5b, Ac-WQLR(SEQ ID NO: 3)-kt]	IC50 (hepsin): 0.001 µM; Ki (hepsin): 0.00021 µM; IC50 (matriptase): 0.049 µM
0.08	0.33 µM	CC(=O)N[C@@H](CCCCN)C(=O)N[C@@H](Cc1ccccc1)C(=O)N[C@@H](CC(C)C)C(=O)N[C@@H](CCCNC(=N)N)C(=O)c1nccs1 [Compound 5d, Ac-KFLR(SEQ ID NO: 5)-kt]	selectivity among HGFA, matriptase and hepsin (HGFA [1]): HGFA selectivity over both hepsin and matriptase; IC50 (hepsin): 0.022 µM; Ki (hepsin): 0.0021 µM; IC50 (matriptase): 0.035 µM; Ki (matriptase; Table 4.2, Boc-QAR-AMC substrate): 0.015 µM
0.182	0.18 µM	CC(=O)N[C@@H](CO)C(=O)N[C@@H](CCC(N)=O)C(=O)N[C@@H](CC(C)C)C(=O)N[C@@H](CCCNC(=N)N)C(=O)c1nccs1 [Compound 5f, Ac-SQLR(SEQ ID NO: 7)-kt]	–
–	6.31 µM	CC(=O)N[C@@H](CO)C(=O)N[C@@H](CCCCN)C(=O)N[C@@H](CC(C)C)C(=O)N[C@H](CCCNC(=N)N)C(=O)c1nccs1 [Compound 6-1, Ac-SKLdR-kt]	–
0.332	1.8 µM	CC(=O)N[C@@H](CO)C(=O)N[C@@H](Cc1c[nH]cn1)C(=O)N[C@@H](CC(C)C)C(=O)N[C@@H](CCCNC(=N)N)C(=O)c1nccs1 [Compound 6a, Ac-SHLR(SEQ ID NO: 11)-kt]	IC50 (hepsin): 0.005 µM; IC50 (matriptase): 0.56 µM
0.056	0.32 µM	CC(=O)N[C@@H](Cc1c[nH]c2ccccc12)C(=O)N[C@@H](CCCCN)C(=O)N[C@@H](CC(C)C)C(=O)N[C@@H](CCCNC(=N)N)C(=O)c1nccs1 [Compound 6b, Ac-WKLR(SEQ ID NO: 12)-kt]	IC50 (hepsin): 0.004 µM; IC50 (matriptase): 0.097 µM
0.079	0.397 µM and 0.4 µM	CC(=O)N[C@@H](CC(N)=O)C(=O)N[C@@H](CCCCN)C(=O)N[C@@H](CC(C)C)C(=O)N[C@@H](CCCNC(=N)N)C(=O)c1nccs1 [Compound 6d, Ac-NKLR(SEQ ID NO: 14)-kt]	Ki (hepsin): 0.00141 µM
0.103	0.567 µM	CC(=O)N[C@H](C(=O)N[C@@H](CCCCN)C(=O)N[C@@H](CC(C)C)C(=O)N[C@@H](CCCNC(=N)N)C(=O)c1nccs1)[C@@H](C)O [Compound 6f, Ac-TKLR(SEQ ID NO: 16)-kt]	–
0.017	0.37 µM	CC(=O)N[C@@H](CCCNC(=N)N)C(=O)N[C@@H](CCCCN)C(=O)N[C@@H](CC(C)C)C(=O)N[C@@H](CCCNC(=N)N)C(=O)c1nccs1 [Compound 6h, Ac-RKLR(SEQ ID NO: 18)-kt]	–
